Drawing on patent US8481536B2, “Benzotriazine inhibitors of kinases” (TargeGen, Inc., priority 2004, dated 2013), this text covers IC50 for 35 compounds.

Some results are limits rather than exact numbers.

Sequence of Recombinant human c-Src (P12931 whole entry, looked up): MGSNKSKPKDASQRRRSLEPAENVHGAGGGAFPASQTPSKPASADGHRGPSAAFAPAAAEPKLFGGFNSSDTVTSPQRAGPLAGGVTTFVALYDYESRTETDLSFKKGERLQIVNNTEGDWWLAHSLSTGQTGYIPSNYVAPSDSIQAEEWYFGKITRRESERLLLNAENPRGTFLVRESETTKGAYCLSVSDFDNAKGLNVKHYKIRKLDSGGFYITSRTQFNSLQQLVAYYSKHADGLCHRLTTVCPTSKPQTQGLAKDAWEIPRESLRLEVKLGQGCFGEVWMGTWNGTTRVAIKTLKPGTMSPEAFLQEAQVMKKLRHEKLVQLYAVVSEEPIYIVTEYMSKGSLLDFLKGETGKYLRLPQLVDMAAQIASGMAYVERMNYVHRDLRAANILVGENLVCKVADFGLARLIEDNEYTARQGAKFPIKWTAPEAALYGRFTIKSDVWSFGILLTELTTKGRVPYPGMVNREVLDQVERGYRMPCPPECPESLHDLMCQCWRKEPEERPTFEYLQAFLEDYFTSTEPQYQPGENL
Sequence of Pdgfrβ (P09619 33-1106): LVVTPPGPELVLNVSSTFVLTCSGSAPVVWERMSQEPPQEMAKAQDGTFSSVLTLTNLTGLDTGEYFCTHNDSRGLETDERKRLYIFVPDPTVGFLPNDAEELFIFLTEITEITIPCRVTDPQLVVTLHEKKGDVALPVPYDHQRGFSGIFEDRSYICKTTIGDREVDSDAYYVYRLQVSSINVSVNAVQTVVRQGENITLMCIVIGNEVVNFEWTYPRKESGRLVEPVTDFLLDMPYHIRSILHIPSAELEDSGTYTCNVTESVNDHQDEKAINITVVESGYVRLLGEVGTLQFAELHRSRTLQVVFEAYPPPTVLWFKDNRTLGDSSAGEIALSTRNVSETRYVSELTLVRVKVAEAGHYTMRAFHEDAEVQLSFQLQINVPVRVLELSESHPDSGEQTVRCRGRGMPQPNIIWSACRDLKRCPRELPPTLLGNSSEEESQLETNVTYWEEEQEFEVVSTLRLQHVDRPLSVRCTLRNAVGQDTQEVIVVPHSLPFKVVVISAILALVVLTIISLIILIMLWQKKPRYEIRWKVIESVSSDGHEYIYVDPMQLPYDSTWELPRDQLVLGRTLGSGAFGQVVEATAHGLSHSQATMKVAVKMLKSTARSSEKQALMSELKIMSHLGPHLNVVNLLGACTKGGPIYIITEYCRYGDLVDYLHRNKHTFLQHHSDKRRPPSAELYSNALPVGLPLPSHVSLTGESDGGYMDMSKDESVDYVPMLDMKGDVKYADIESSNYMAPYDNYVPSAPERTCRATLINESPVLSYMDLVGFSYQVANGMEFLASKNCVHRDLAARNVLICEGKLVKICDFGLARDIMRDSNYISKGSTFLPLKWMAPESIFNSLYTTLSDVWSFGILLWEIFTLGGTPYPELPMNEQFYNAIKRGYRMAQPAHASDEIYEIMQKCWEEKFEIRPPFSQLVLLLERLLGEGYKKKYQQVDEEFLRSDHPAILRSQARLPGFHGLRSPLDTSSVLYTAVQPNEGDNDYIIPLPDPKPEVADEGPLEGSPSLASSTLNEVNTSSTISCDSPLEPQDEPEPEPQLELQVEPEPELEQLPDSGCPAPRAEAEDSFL

The first test concerns the target Recombinant human c-Src (Homo sapiens (Human), UniProt P12931). Kind of test: Src kinase inhibition in vitro (luciferase-based residual ATP, KinaseGlo). The note with it: ATP 3 μM, PTK2 substrate, 90 minutes at room temperature. Type of test: biochemical. The procedure:
(§1) The ability of compounds of the present invention to inhibit the activity of three groups of kinases was tested. Kinases tested included the src family (primarily src and yes), some angiogenic growth factor receptors (Fgfr1, Vegfr, and Pdgfrβ) and the ephrin, EphB4. All kinase reactions were conducted in 96-well plates with a final reaction volume of 50 ul.
After reacting for about 90 minutes at room temperature, residual ATP was determined using a luciferase-based assay (KinaseGlo, Promega Corp.) as a measure of kinase activity. Data from four wells were then averaged and used to determine IC50 values for the test compounds (Prism software package, GraphPad Software, San Diego Calif.).
(§2) The test results for inhibition of Src kinase are presented in Table 1, and the test results for inhibition of some other kinases (i.e., Yes, EphB4, and Pdgfrβ) are presented in Table 2.
Turning to `Cc1cccc(C)c1-c1cc(C)c2nc(Nc3cccc(S(=O)(=O)N4CCNCC4)c3)nnc2c1` [[7-(2,6-dimethyl-phenyl)-5-methyl-benzo[1,2,4]triazin-3-yl]-[3-(piperazine-1-sulfonyl)-phenyl]-amine], the IC50 worked out at 48.2 nM.

For `Cc1cccc(C)c1-c1cc(N)c2nc(Nc3ccc(OCCN4CCCC4)cc3)nnc2c1` [7-(2,6-dimethyl-phenyl)-N3-[4-(2-pyrrolidin-1-yl-ethoxy)-phenyl]-benzo[1,2,4]triazine-3,5-diamine], the IC50 stood at 9.7 nM.

As for `Cc1cc(-c2cccc(N)c2)cc2nnc(Nc3ccc(S(=O)(=O)NCCN4CCCC4)cc3)nc12` [4-[7-(3-amino-phenyl)-5-methyl-benzo[1,2,4]triazin-3-ylamino]-N-(2-pyrrolidin-1-yl-ethyl)-benzenesulfonamide], the IC50 was 282 nM.

With `Cc1cccc(C)c1-c1cc(C)c2nc(Nc3ccc(S(=O)(=O)N4CCN(C)CC4)cc3)nnc2c1` [[7-(2,6-dimethyl-phenyl)-5-methyl-benzo[1,2,4]triazin-3-yl]-[4-(4-methyl-piperazine-1-sulfonyl)-phenyl]-amine], the IC50 worked out at 137 nM.

Take `Cc1cc2nc(Nc3ccc(S(=O)(=O)NCCN4CCCC4)cc3)nnc2cc1Br` [[7-Bromo-6-methyl-benzo[1,2,4]triazin-3-ylamino]-N-(2-pyrrolidin-1-yl-ethyl)-benzene-4-sulfonamide]: the IC50 was greater than 10000 nM.

As to `COc1ccc(Nc2nnc3cc(-c4c(C)cccc4C)cc(C)c3n2)cc1` [(4-methoxy-phenyl)-[7-(2,6-dimethyl-phenyl)-5-methyl-benzo[1,2,4]triazin-3-yl]-amine], the IC50 turned out to be 140 nM.

Turning to `Cc1cc2nc(Nc3ccc(S(=O)(=O)NCCN4CCCC4)cc3)nnc2cc1-c1ccccc1C(F)(F)F` [4-[6-methyl-7-(2-trifluoromethyl-phenyl)-benzo[1,2,4]triazin-3-ylamino]-N-(2-pyrrolidin-1-yl-ethyl)-benzenesulfonamide], the IC50 came out at 66.5 nM.

Turning to `Cc1cccc(C)c1-c1cc(C)c2nc(Nc3cccc4cccnc34)nnc2c1` [[7-(2,6-dimethyl-phenyl)-5-methyl-benzo[1,2,4]triazin-3-yl]-quinolin-8-yl-amine], the IC50 was greater than 10000 nM.

In the case of `Cc1cc(-c2c(Cl)cccc2Cl)cc2nnc(Nc3ccc(S(=O)(=O)NCCN4CCCC4)cc3)nc12` [4-[7-(2,6-dichloro-phenyl)-5-methyl-benzo[1,2,4]triazin-3-ylamino]-N-(2-pyrrolidin-1-yl-ethyl)-benzenesulfonamide], the IC50 turned out to be 14 nM.

For `Cc1cccc(C)c1-c1cc(C)c2nc(Nc3ccncc3)nnc2c1` [[7-(2,6-dimethyl-phenyl)-5-methyl-benzo[1,2,4]triazin-3-yl]-pyridine-4-yl-amine], the IC50 amounted to 36 nM.

Take `Cc1ccc(C)c(Nc2nnc3cc(-c4c(C)cccc4C)cc(C)c3n2)c1` [(2,5-dimethyl-phenyl)-[7-(2,6-dimethyl-phenyl)-5-methyl-benzo[1,2,4]triazin-3-yl]-amine]: the IC50 is greater than 10000 nM.

Turning to `Cc1cc2nc(Nc3ccc(OCCN4CCCC4)cc3)nnc2cc1-c1c(C)cccc1C` [[7-(2,6-dimethyl-phenyl)-6-methyl-benzo[1,2,4]triazin-3-yl]-[4-(2-pyrrolidin-1-yl-ethoxy)-phenyl]-amine], the IC50 was 12.3 nM.

For the compound `COc1ccc(Cl)c(-c2cc(C)c3nc(Nc4ccc(OCCN5CCCC5)cc4)nnc3c2)c1` [[7-(2-chloro-5-methoxy-phenyl)-5-methyl-benzo[1,2,4]triazin-3-yl]-[4-(2-pyrrolidin-1-yl-ethoxy)-phenyl]-amine], the IC50 came to 788 nM.

With `Cc1cccc(C)c1-c1cc(C)c2nc(NC(=O)c3ccccc3)nnc2c1` [N-[7-(2,6-dimethyl-phenyl)-5-methyl-benzo[1,2,4]triazin-3-yl]-benzamide], the IC50 was 1800 nM.

As to `Cc1cc(-c2ccccn2)cc2nnc(Nc3ccc(OCCN4CCCC4)cc3)nc12` [(5-methyl-7-pyridin-2-yl-benzo[1,2,4]triazin-3-yl)-[4-(2-pyrrolidin-1-yl-ethoxy)-phenyl]-amine], the IC50 amounted to 1800 nM.

For another test, the target named is Pdgfrβ (Homo sapiens (Human), UniProt P09619). The test can be described thus: Pdgfrβ kinase inhibition in vitro (luciferase-based residual ATP). In kind it is biochemical. The settings on record: 500 nM ATP, PTK2 peptide, 60 minutes at 37 C; read-out: PDGFR IC50. As for the experimental part:
as §1
Pdgfrβ (0.16 ug/well, Panvera/Invitrogen) 500 nM ATP and the PTK2 peptide (700 uM) were combined with compound and reaction buffer as noted above for src. The reaction was incubated for 60 minutes at 37 C, and the residual ATP concentration was determined using the luciferase-based technique also noted above.
as §2
Consider `Cc1cccc(C)c1-c1cc(C)c2nc(Nc3ccccc3)nnc2c1` [[7-(2,6-dimethyl-phenyl)-5-methyl-benzo[1,2,4]triazin-3-yl]-phenyl-amine], for which the IC50 is 628 nM.

`Cc1cc2nc(Nc3ccc(S(=O)(=O)NCCN4CCCC4)cc3)nnc2cc1-c1cc(O)ccc1Cl`: the IC50 amounted to 1.9 nM.

As for `Cc1cc2nc(Nc3ccc(OCCN4CCCC4)cc3)nnc2cc1-c1cc(O)ccc1Cl` [4-chloro-3-{6-methyl-3-[4-(2-pyrrolidin-1-yl-ethoxy)phenylamino]-benzo[1,2,4]triazin-7-yl}-phenol], the IC50 was 5.7 nM.

On to `Cc1cc(-c2cc(O)ccc2Cl)cc2nnc(Nc3ccc(S(=O)(=O)C4CCNCC4)cc3)nc12` [4-chloro-3-{5-methyl-3-[4-(piperidine-4-sulfonyl)-phenylamino]-benzo[1,2,4]triazin-7-yl}-phenol], for which the IC50 came out at 2.8 nM.

In the case of `Cc1ccc(Cl)cc1-c1cc2nnc(Nc3ccc(C(=O)N4CCN(C)CC4)cc3)nc2cc1C` [{4-[7-(5-chloro-2-methyl-phenyl)-6-methyl-benzo[1,2,4]triazin-3-ylamino]-phenyl}-(4-methyl-piperazin-1-yl)-methanone], the IC50 worked out at 6 nM.

On to `Cc1ccc(F)cc1-c1cc2nnc(Nc3ccc(OCCN4CCCC4)cc3)nc2cc1C` [[7-(5-fluoro-2-methyl-phenyl)-6-methyl-benzo[1,2,4]triazin-3-yl]-[4-(2-pyrrolidin-1-yl-ethoxy)-phenyl]-amine], for which the IC50 was 26.1 nM.

As for `Cc1cc(-c2cc(O)ccc2Cl)cc2nnc(Nc3ccc(S(=O)(=O)NCCN4CCCC4)cc3)nc12`, the IC50 turned out to be 1.7 nM.

For `Cc1cc(-c2cc(O)ccc2Cl)cc2nnc(Nc3ccc(N4CCOCC4)nc3)nc12` [4-chloro-3-[5-methyl-3-(6-morpholin-4-yl-pyridin-3-ylamino)-benzo[1,2,4]triazin-7-yl]-phenol], the IC50 amounted to 2.1 nM.

For the compound `CC(=O)Nc1cc(-c2c(C)cccc2C)cc2nnc(Nc3ccc(S(=O)(=O)NCCN4CCCC4)cc3)nc12` [N-{7-(2,6-dimethyl-phenyl)-3-[4-(2-pyrrolidin-1-yl-ethylsulfamoyl)-phenylamino]-benzo[1,2,4]triazin-5-yl}-acetamide], the IC50 is 1850 nM.

Turning to `Cc1cc(-c2c(Cl)ccc(O)c2Cl)cc2nnc(Nc3ccc(S(=O)(=O)NCCN4CCCC4)cc3)nc12` [4-[7-(2,6-dichloro-3-hydroxy-phenyl)-5-methyl-benzo[1,2,4]triazin-3-ylamino]-N-(2-pyrrolidin-1-yl-ethyl)-benzenesulfonamide], the IC50 worked out at 8 nM.

For `Cc1cccc(C)c1-c1cc(C)c2nc(Nc3nc(C(=O)NCCN4CCCC4)cs3)nnc2c1` [2-[7-(2,6-dimethyl-phenyl)-5-methyl-benzo[1,2,4]triazin-3-ylamino]-thiazole-4-carboxylic acid (2-pyrrolidin-1-yl-ethyl)-amide], the IC50 turned out to be 60 nM.

Turning to `Cc1cccc(C)c1-c1cc(C)c2nc(Nc3ccc(C(=O)NCCN4CCCC4)o3)nnc2c1` [5-[7-(2,6-dimethyl-phenyl)-5-methyl-benzo[1,2,4]triazin-3-ylamino]-furan-2-carboxylic acid (2-pyrrolidin-1-yl-ethyl)-amide], the IC50 was 117 nM.

Regarding `Cc1cc(-c2cc(O)ccc2Cl)cc2nnc(Nc3ccc(S(=O)(=O)CCCN4CCCC4)cc3)nc12`, the IC50 worked out at 2.9 nM.

`Cc1cc(-c2cc(O)ccc2Cl)cc2nnc(Nc3cccc(N(C)C)c3)nc12` [4-chloro-3-[3-(3-dimethylamino-phenylamino)-5-methyl-benzo[1,2,4]triazin-7-yl]-phenol]: the IC50 stood at 20.8 nM.

With `Cc1cc(-c2cc(O)ccc2Cl)cc2nnc(Nc3ccc(C(=O)N4CCNCC4)cc3)nc12` [{4-[7-(2-chloro-5-hydroxy-phenyl)-5-methyl-benzo[1,2,4]triazin-3-ylamino]-phenyl}-piperazin-1-yl-methanone], the IC50 worked out at 1.2 nM.

As to `Cc1cc(-c2cc(O)ccc2Cl)cc2nnc(Nc3ccc(S(=O)(=O)N(C)CCN4CCCC4)cc3)nc12` [4-[7-(2-chloro-5-hydroxy-phenyl)-5-methyl-benzo[1,2,4]triazin-3-ylamino]-N-methyl-N-(2-pyrrolidin-1-yl-ethyl)-benzenesulfonamide], the 50% inhibitory concentration (IC50) was 3.1 nM.

For the compound `Cc1cc(-c2cc(O)ccc2Cl)cc2nnc(Nc3cccnc3)nc12` [4-chloro-3-[5-methyl-3-(pyridin-3-ylamino)-benzo[1,2,4]triazin-7-yl]-phenol], the IC50 is 23.5 nM.

In the case of `Cc1cc(O)cc(C)c1-c1cc(C)c2nc(Nc3ccc(OCCN4CCCC4)cc3)nnc2c1`, the IC50 was 41.1 nM.

As to `Cc1cc(-c2cc(O)ccc2Cl)cc2nnc(Nc3ccc(C(=O)NCCN4CCCC4)o3)nc12` [5-[7-(2-chloro-5-hydroxy-phenyl)-5-methyl-benzo[1,2,4]triazin-3-ylamino]-furan-2-carboxylic acid (2-pyrrolidin-1-yl-ethyl)-amide], the IC50 worked out at 14.4 nM.

Regarding `COc1cc2nc(Nc3ccc(S(=O)(=O)NCCN4CCCC4)cc3)nnc2cc1-c1ccccc1C` [4-(6-methoxy-7-o-tolyl-benzo[1,2,4]triazin-3-ylamino)-N-(2-pyrrolidin-1-yl-ethyl)-benzenesulfonamide], the IC50 came to 39.3 nM.
